Experimental data reported in publication PMC8812549 (Journal of medicinal chemistry, 2021).
Read-outs that look alike come from different tables or passages of the source.

How the values were obtained:
[1] = Parallel artificial membrane permeability assay; format: in vitro ADME; conditions: passive permeability, pH 7.4
[2] = mice

SMILES | PAMPA [1] | further results
Cc1ccc(C2CC(N(Cc3ccc(Br)c(Cl)c3)C3CCNCC3)C2)cc1 (stereo not drawn) [compound 56, N-(4-Bromo-3-chlorobenzyl)-N-(3-(p-tolyl)cyclobutyl)piperidin-4-amine] | 806 1e^−6 cm/s | –
Cc1ccc(C2CC(N(Cc3ccc(Br)c(Cl)c3)C3CCN(C)CC3)C2)cc1 (stereo not drawn) [compound 68] | 274.27 1e^−6 cm/s | –
Cc1cccc(C2CC(N(Cc3ccc(Br)c(Cl)c3)C3CCNCC3)C2)c1 (stereo not drawn) [compound 60] | 265 1e^−6 cm/s | –
Fc1ccc(C2CC(N(Cc3ccc(Br)c(Cl)c3)C3CCNCC3)C2)cc1 (stereo not drawn) [compound 59] | 398 1e^−6 cm/s | –
CC(=O)N1CCC(N(Cc2ccc(Br)c(Cl)c2)C2CC(c3ccc(C)cc3)C2)CC1 (stereo not drawn) [compound 67] | 1909 1e^−6 cm/s | –
Cc1ccc(C2CC(N(Cc3ccc(Br)c(Cl)c3)C3CCC(N)CC3)C2)cc1 (stereo not drawn) [compound 70] | 818.04 1e^−6 cm/s | –
Clc1cc(CN(C2CCNCC2)C2CC(c3cccc(Br)c3)C2)ccc1Br (stereo not drawn) [compound 62] | 14 1e^−6 cm/s | –
Clc1cc(CN(C2CCNCC2)C2CC(c3ccc(Br)cc3)C2)ccc1Br (stereo not drawn) [compound 58, N-(4-Bromo-3-chlorobenzyl)-N-(3-(4-bromophenyl)cyclobutyl)piperidin-4-amine] | 32 1e^−6 cm/s | unusual behavior or acute toxicity ([2]; 10 mg/kg IP, 24 hours, posture, body temperature, respiratory rate): No unusual behavior or acute toxicity; Cmax liver ([2]; 10 mg/kg IP, oxalate salt): 112 µM
Cc1ccc(C2CC(N(Cc3ccc(Br)c(Cl)c3)C3CCCNCC3)C2)cc1 (stereo not drawn) [compound 72] | 665.84 1e^−6 cm/s | –
Cc1ccc([C@H]2C[C@H](N(Cc3ccc(Br)c(Cl)c3)C3CCNCC3)C2)cc1 [77b] | – | Cmax liver ([2]; 1 mg/kg, di-HCl salt): 4.13 µM
Cc1ccc(C2CC(N(Cc3ccc(Br)c(Cl)c3)C3CCN(C(C)C)CC3)C2)cc1 (stereo not drawn) [compound 69] | <23.1 1e^−6 cm/s | –
Cc1ccc(C2CC(N(Cc3ccc(Br)c(Cl)c3)C3CC4CNC3C4)C2)cc1 (stereo not drawn) [compound 74] | 122.99 1e^−6 cm/s | –
Cc1ccc(C2CC(N(Cc3ccc(Br)c(Cl)c3)C3CCOCC3)C2)cc1 (stereo not drawn) [compound 66] | <6.4 1e^−6 cm/s | –
